# Test results from paper PMC9909315, “SY-707, an ALK/FAK/IGF1R inhibitor, suppresses growth and metastasis of breast cancer cells” (Acta Biochimica et Biophysica Sinica, 2022).
# Experiments:
# [1] = molecular target: ACK (Homo sapiens, UniProt Q07912); assay: HTRF kinase enzyme assay; format: biochemical; details: ATP at Km
# Experimental: (§1) Homogeneous time-resolved fluorescence (HTRF) assay was performed to analyze kinase enzyme activity and compound potency using HTRF ® KinEASE ^TM-TK kit (Cisbio Bioassays, Shanghai, China). Compound SY-707 was serially diluted by 3 folds from 1 mM stock solution in DMSO, and 4 μL of the diluted solution of the compounds was added to 96 μL of reaction buffer (50 mM HEPES, pH 7.0, 0.1 mM Na 3VO 4, 0.01% BAS, 5 mM MgCl 2, 1 mM DTT), then 2.5 μL of 4× compound solution and 5 μL of 2× kinases solution were added to a 384-well plate (OptiPlate-384; PerkinElmer, Wellesley, USA ). The resulted solutions were briefly mixed, centrifuged and incubated for 5 min. Finally, 2.5 μL of 4× ATP/TK peptide (ATP at K m for each kinase) solution was added to the reaction system to initiate the reaction. The enzymatic reaction was carried out for 60-120 min at 23°C, then terminated by addition of 5 μL of detection solution containing TK antibody-cryptate and 5 μL of Streptravidin-XL-665. The mixture was incubated for additional 1 h at 23°C. The fluorescent signals were measured with an EnVision multilabel plate reader (PerkinElmer). IC 50 values of the compounds were calculated using the GraFit software (Version 6.0) and presented as the mean of three independent experiments performed in duplicate.
# [2] = molecular target: ALK (Homo sapiens, UniProt Q9UM73); assay: HTRF kinase enzyme assay; format: biochemical; details: ATP at Km
# Experimental: as §1
# [3] = molecular target: FER (Homo sapiens, UniProt P16591); assay: HTRF kinase enzyme assay; format: biochemical; details: ATP at Km
# Chain of FER (P16591 whole entry): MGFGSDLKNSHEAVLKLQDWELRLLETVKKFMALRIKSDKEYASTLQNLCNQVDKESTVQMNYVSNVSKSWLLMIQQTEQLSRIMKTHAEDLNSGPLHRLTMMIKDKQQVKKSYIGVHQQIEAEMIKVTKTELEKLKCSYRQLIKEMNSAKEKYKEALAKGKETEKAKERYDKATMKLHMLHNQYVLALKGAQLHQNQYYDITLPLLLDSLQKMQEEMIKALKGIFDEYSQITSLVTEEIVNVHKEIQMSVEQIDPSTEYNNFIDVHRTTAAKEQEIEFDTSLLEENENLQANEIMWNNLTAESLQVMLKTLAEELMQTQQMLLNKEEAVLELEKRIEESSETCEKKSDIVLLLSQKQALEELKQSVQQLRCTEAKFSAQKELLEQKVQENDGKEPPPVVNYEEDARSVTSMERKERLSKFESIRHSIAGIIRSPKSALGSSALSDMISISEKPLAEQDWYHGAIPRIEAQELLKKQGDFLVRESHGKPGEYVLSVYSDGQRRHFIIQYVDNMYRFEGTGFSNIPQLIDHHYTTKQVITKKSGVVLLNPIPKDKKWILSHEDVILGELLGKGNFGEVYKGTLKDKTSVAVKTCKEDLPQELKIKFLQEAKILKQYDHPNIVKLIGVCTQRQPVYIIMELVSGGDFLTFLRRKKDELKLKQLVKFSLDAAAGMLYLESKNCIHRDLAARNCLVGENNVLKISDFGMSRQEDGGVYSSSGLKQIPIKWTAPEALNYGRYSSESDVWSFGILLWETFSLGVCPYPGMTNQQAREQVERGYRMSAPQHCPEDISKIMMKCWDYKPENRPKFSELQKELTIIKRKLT
# Experimental: as §1
# [4] = molecular target: FES (Homo sapiens, UniProt P07332); assay: HTRF kinase enzyme assay; format: biochemical; details: ATP at Km
# Chain of FES (P07332 whole entry): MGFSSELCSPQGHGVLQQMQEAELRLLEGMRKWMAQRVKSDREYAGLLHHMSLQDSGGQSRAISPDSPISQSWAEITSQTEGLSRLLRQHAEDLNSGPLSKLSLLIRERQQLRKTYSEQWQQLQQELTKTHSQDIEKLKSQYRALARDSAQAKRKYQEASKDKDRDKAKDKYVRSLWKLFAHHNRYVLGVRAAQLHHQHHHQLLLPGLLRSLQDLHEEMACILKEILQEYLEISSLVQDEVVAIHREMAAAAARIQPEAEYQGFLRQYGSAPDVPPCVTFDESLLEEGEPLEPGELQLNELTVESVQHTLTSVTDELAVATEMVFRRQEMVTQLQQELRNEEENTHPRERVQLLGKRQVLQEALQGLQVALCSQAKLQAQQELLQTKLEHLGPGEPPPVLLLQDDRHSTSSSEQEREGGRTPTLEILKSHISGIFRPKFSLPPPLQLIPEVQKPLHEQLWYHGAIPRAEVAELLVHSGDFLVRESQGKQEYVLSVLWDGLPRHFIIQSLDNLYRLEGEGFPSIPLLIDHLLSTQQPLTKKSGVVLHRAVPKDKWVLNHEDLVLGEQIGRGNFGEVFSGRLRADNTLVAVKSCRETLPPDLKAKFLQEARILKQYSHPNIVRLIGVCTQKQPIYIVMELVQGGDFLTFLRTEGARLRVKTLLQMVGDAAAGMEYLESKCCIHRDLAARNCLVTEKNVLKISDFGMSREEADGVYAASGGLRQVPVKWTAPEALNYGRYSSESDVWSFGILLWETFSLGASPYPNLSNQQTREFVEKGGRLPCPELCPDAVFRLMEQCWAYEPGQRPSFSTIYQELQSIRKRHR
# Experimental: as §1
# [5] = molecular target: IGF1R (Homo sapiens, UniProt P08069); assay: HTRF kinase enzyme assay; format: biochemical; details: ATP at Km
# Experimental: as §1
# [6] = molecular target: IRK (Homo sapiens, UniProt P06213); assay: HTRF kinase enzyme assay; format: biochemical; details: ATP at Km
# Chain of IRK (P06213 28-1382): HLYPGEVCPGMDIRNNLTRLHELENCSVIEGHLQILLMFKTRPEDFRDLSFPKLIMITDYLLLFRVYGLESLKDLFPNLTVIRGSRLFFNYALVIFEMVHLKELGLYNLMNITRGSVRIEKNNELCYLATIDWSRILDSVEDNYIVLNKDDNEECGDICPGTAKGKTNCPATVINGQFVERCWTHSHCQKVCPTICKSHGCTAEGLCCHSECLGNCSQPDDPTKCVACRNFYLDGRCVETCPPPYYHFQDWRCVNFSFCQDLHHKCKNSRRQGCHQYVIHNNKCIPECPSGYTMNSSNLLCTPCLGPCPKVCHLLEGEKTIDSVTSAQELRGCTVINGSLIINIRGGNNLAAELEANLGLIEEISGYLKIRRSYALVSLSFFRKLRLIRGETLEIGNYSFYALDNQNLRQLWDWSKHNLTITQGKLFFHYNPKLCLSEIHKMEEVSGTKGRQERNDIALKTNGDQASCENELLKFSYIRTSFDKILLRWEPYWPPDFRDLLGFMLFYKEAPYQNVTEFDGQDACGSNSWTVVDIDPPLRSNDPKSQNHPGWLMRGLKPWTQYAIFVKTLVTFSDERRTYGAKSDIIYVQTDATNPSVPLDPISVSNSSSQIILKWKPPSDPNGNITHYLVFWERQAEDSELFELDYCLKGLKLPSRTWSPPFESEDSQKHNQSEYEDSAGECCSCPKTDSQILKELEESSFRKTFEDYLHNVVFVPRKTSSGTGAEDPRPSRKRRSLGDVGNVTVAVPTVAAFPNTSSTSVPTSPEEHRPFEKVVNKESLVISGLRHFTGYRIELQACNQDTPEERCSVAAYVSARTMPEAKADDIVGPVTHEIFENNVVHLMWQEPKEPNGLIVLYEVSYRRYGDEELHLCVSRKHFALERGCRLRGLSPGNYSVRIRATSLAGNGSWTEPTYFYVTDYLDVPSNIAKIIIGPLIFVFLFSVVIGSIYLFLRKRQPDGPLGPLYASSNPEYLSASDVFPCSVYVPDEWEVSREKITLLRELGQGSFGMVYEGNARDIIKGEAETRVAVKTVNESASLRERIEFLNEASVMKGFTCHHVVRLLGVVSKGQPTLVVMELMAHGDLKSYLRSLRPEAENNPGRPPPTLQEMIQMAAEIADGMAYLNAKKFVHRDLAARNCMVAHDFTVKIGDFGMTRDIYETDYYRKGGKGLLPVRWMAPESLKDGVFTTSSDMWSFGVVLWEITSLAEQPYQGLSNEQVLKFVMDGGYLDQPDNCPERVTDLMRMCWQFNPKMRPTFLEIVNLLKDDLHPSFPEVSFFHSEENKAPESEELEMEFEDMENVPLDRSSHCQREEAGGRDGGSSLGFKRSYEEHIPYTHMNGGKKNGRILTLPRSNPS
# Experimental: as §1
# [7] = molecular target: LTK (Homo sapiens, UniProt P29376); assay: HTRF kinase enzyme assay; format: biochemical; details: ATP at Km
# Chain of LTK (P29376 17-864): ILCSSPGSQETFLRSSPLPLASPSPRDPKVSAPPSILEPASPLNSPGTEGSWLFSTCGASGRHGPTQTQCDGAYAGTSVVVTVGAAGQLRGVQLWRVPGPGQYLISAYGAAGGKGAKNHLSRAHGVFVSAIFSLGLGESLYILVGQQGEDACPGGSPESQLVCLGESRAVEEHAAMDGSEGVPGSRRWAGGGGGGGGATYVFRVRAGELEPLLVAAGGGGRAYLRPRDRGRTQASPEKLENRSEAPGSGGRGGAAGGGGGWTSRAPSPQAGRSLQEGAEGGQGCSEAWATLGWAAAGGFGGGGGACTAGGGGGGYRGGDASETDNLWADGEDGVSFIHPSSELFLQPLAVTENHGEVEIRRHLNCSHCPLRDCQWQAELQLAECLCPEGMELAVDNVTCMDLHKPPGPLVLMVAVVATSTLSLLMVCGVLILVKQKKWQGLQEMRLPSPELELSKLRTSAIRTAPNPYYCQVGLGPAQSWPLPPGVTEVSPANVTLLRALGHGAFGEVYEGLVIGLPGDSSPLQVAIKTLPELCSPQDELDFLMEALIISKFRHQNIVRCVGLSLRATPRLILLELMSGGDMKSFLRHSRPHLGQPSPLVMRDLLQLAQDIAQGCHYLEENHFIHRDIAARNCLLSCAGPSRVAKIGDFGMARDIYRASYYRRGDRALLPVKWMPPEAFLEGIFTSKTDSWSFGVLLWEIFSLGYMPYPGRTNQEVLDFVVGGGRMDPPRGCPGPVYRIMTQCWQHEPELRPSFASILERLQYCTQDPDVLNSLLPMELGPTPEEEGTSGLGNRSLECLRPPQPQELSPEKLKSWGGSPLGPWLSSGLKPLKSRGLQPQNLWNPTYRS
# Experimental: as §1
# [8] = molecular target: PYK2 (Homo sapiens, UniProt Q14289); assay: HTRF kinase enzyme assay; format: biochemical; details: ATP at Km
# Chain of PYK2 (Q14289 whole entry): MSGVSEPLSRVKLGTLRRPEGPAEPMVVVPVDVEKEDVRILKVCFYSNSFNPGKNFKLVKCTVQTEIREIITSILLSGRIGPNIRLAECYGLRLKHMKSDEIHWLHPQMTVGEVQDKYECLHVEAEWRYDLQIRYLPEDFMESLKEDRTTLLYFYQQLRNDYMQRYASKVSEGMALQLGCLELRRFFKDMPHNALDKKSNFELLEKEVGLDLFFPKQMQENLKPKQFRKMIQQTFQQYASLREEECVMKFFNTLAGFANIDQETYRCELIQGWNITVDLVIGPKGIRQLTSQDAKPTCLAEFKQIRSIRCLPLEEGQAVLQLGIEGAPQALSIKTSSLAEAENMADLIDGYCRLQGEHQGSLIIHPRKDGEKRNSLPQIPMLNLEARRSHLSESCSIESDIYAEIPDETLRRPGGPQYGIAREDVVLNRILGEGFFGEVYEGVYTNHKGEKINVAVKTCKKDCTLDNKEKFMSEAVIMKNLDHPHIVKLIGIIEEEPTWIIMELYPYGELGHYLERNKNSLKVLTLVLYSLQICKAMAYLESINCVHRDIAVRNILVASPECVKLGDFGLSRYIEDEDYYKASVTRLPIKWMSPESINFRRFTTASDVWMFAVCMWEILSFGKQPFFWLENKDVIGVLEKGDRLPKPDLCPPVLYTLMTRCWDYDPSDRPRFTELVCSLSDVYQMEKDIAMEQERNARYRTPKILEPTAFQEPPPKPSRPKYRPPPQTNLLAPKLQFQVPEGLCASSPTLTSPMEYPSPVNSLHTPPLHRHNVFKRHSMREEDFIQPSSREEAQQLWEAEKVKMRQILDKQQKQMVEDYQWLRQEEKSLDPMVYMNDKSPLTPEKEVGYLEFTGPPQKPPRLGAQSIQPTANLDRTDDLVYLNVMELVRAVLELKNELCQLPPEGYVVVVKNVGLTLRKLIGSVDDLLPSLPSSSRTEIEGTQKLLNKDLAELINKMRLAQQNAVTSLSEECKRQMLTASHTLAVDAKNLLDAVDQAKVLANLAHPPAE
# Experimental: as §1
# [9] = test system: MCF-7 cells; assay: PE Annexin V/7-AAD apoptosis flow cytometry; format: cell-based; details: MCF-7, 0.01, 0.1 and 1 μM, 24 h
# Experimental: MCF-7 cells were treated with 0.1% DMSO (control) or with SY-707 solution at indicated concentrations for 24 h at 37°C, then the cells were harvested by centrifugation at 350 g and washed twice with PBS. Cell apoptosis was determined using the PE Annexin V Apoptosis Detection kit (BD Biosciences, San Jose, USA) following the manufacture’s guides. Breifly, cells were resuspended with 100 μL of binding buffer containing Annexin V and 7-AAD. After 15 min of incubation at room temperature in the dark, 400 μL of binding buffer was added to the mixture and the cells were analyzed with a Guava flow cytometer (Millipore). Cell cycle arrest was evaluated by incorporation of propidium (PI; Sigma-Aldrich, St Louis, USA) into the permeablized cells. After being treated with DMSO or compounds for 24 h, cells were harvested, washed twice with cold PBS, fixed with ice-cold 70% ethanol, followed by a secondary staining step with staining buffer (0.25 mg/mL RNase, 0.025 mg/mL PI, in PBS) for 1 h at 37°C. Compound regulation of cell-cycle was analyzed using the Guava flow cytometer. Data were analyzed with FlowJo software.
# [10] = test system: phosphorylation of FAK at Tyr397; assay: Western blot of FAK phosphorylation in T47D cells; format: cell-based; details: 1 h treatment
# Experimental: Equal amounts of cell lysates were loaded onto 10% SDS-PAGE gel and separated by electrophoresis. Separated proteins were then electro-transferred onto polyvinylidene fluoride (PVDF) membranes (Millipore, Bedford, USA). After being blocked with Tris-buffered saline containing 0.1% Tween-20 (TBST) and 5% bovine serum albumin (BSA), the membranes were incubated with primary antibodies at room temperature for 2 hours or at 4°C, then washed with TBST, followed by treatment with horseradish peroxidase (HRP)-conjugated goat anti-rabbit IgG secondary antibody at room temperature for another 1 h. The targeted protein bands were visualized using an enhanced chemiluminescence (ECL) plus system (Thermo Fisher Scientific). Primary antibodies against phospho-FAK (3283, 1:1000 dilution), phospho-ERK (4377, 1:2000 dilution), phospho-AKT (4060, 1:2000 dilution), FAK (3285, 1:1000 dilution), AKT (6703, 1:1000 dilution) and β-Actin (5125, 1:10,0000 dilution) were purchased from Cell Signaling Technology (Beverly, USA) and the HRP-conjugated goat anti-rabbit IgG (ZDR-5306, 1:10,000 dilution) was purchased from Jackson (West Grove, USA ).
# Cells were cultured in 6-well plates and treated with the indicated concentrations of SY-707 for 1 h before stimulation with or without 100 ng/mL IGF1 for 10 min. Control cells received the drug vehicle with 0.1% DMSO. […]
# [11] = test system: T47D xenograft; assay: T47D tumor xenograft study; format: in vivo, nude mice
# Experimental: Due to the strong cell growth inhibition potency of SY-707, we firstly evaluate its in vivo anti-cancer activity in T47D xenograft model mice. In this model, mice were orally administered twice a day with vehicle or SY-707 at dose of 100, 50 or 25 mg/kg after tumor size reached 150–300 mm ^3.
# Next, we evaluated the combination effects of SY-707 and paclitaxel (an approved drug for breast cancer therapy) in T47D xenograft model. Mice bearing T47D breast cancer were divided randomly into 4 groups: vehicle, SY-707 (100 mg/kg/day), paclitaxel (10 mg/kg/week), and SY-707 plus paclitaxel groups.
smiles,measurement,setting,value
"COc1cc(N2CCC(N3CCN(C)CC3)CC2)ccc1Nc1nc2c(c(Nc3ccccc3S(=O)(=O)NC(C)C)n1)CCN2 [SY-707, N-isopropyl-2-((2-((2-methoxy-4-(4-(4-methylpiperazin-1-yl)piperidin-1-yl)phenyl)amino)-6,7-dihydro-5H-pyrrolo[2,3-d]pyrimidin-4-yl)amino)benzenesulfonamide]",IC50,[1],28.7 ± 3.5 nM
same,IC50,[2],2.4 nM
same,IC50,[3],52.3 ± 2.3 nM
same,IC50,[4],81.8 ± 19 nM
same,IC50,[5],10.6 ± 0.58 nM
same,IC50,[6],7.9 ± 0.3 nM
same,IC50,[7],1.9 ± 0.18 nM
same,IC50,[8],2.4 ± 0.8 nM
same,Late apoptosis,[9],dose-dependently induced
same,phosphorylation of FAK at Tyr397,[10],dose-dependently suppressed
same,tumor growth inhibition rate,"[11]; 25 mg/kg orally twice a day, 21 days, P<0.05",31%
same,tumor growth inhibition rate,"[11]; 50 mg/kg orally twice a day, 21 days, P<0.05",39%
same,tumor growth inhibition rate,"[11]; 100 mg/kg orally twice a day, 21 days, P<0.01",61%
same,tumor growth inhibition rate,"[11]; combination study, SY-707 100 mg/kg/day alone, 24 days",14%
